Test results reported in PubChem BioAssay (NCI).
Values joined by “and” are separate entries in the source; they are usually repeats but may differ in a detail not shown here. Equal values may be shown once.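 A five-concentration, 48-hour dose response in 96-well plates underlies each endpoint, interpolated linearly between surrounding concentrations. GI50 = concentration required for 50% inhibition of growth. TGI is the concentration that stops growth completely.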

Columns and labels:
Assay in all cases: NCI anticancer screen, dose series, 48 h
[1] = system: HL-60(TB) leukemia
[2] = system: HCT-15 colon
[3] = system: ACHN renal
[4] = system: SK-MEL-28 melanoma
[5] = system: HT29 colon
[6] = system: M14 melanoma
[7] = system: EKVX NSCLC
[8] = system: HS 578T breast
[9] = system: RPMI-8226 leukemia
[10] = system: UACC-257 melanoma

SMILES | GI50 [1] | TGI [1] | GI50 [2] [µM] | TGI [2] [µM] | GI50 [3] | TGI [3] | GI50 [4] [µM] | TGI [4] [µM] | GI50 [5] | TGI [5] [µM] | GI50 [6] [µM] | TGI [6] [µM] | GI50 [7] [µM] | TGI [7] [µM] | GI50 [8] [µM] | TGI [8] | GI50 [9] | TGI [9] | GI50 [10] | TGI [10] [µM]
CCCCCCCCCCCCCCCCn1cc[n+](C)c1 | 0.129 µM | 0.321 µM | 0.989 | 2.15 | 0.613 µM | 2.01 µM | 0.707 | 2.05 | 0.291 µM | 1.25 | 0.268 | 1.3 | 0.422 | 1.96 | 0.383 | 1.75 µM | 0.024 µM | 0.19 µM | – | –
CC(=O)OCC1OC(SC2=N/C(=C\c3ccc(Br)s3)C(=O)N2c2ccccc2)C(OC(C)=O)C(OC(C)=O)C1OC(C)=O (centres undefined) | 8.5 µM and 3.83 µM | > 100 µM and 21.4 µM | – | > 100 | – | > 100 µM | – | > 100 | > 100 µM and 28.6 µM | > 100 | – | – | – | > 100 | – | 78.4 µM and > 100 µM | 37.7 µM and 7.96 µM | > 100 µM and 61 µM | > 100 µM and 42.5 µM | > 100
O=C1OC2(c3ccc(O)cc3Oc3cc(O)ccc32)c2cccc3cccc1c23 | 30.6 µM | 81.6 µM | 19.2 | 52.6 | 16.7 µM | 44 µM | 17.2 | 34.3 | 21 µM | 47.4 | 22.3 | 56.7 | – | – | 22.2 | > 100 µM | 21.5 µM | 56.3 µM | 23.6 µM | 67.2
CCOc1ccc(-c2nc3ccc(-c4nc5ccc(N6CCN(C)CC6)cc5[nH]4)cc3[nH]2)cc1 | 1.2 µM and 0.162 µM | 1.23 µM | 1.48 | 7.61 | 0.631 µM and 1.18 µM | 1.89 µM and 2.7 µM | 0.77 | 2.13 | – | – | 0.264 | 2.08 | 0.658 | 3.1 | 0.476 | 2.52 µM | 0.0484 µM | 0.71 µM | – | –
CCCN(CCC)c1ccc(/C=N/NC(=O)c2cccnc2)c(C)c1 | 13.4 µM | 39.5 µM | 11.9 | 47.8 | 24.5 µM | > 100 µM | 16.4 | 43.1 | 8.54 µM | 25.2 | – | – | 13.5 | 37.2 | 13.9 | 48.2 µM | 19.4 µM | 68.7 µM | 12.3 µM | 24.8
CC(C)(C)c1cc(C[P+](c2ccccc2)(c2ccccc2)c2ccccc2)cc(C(C)(C)C)c1O | 0.22 µM | 0.682 µM | 2.39 | 11.9 | 2.63 µM | 10.8 µM | 0.637 | 8.21 | 0.184 µM | 1.65 | 0.398 | 3.53 | – | – | 0.51 | 17.1 µM | 0.178 µM | 0.627 µM | 0.227 µM | 0.684
COc1ccc(C(=O)/C=C/c2cc(-c3ccc(OC)c(OC)c3)n[nH]2)cc1OC | 2.76 µM | > 100 µM | 1.09 | 5.39 | 1.59 µM | 3.83 µM | 1.82 | 4.82 | 1.38 µM | 4.95 | 1.91 | 4.11 | – | – | 3.76 | > 100 µM | 0.357 µM | 2.26 µM | 2.16 µM | 5.02
